From patent US20220195275A1, “Biocompatible Oil Herders and Methods of Use” (Texas A&M University, priority 2019, published 2022)

Columns and labels:
[1] = Conductivity versus temperature / determination of Krafft point; assay type: physicochemical; settings: for Conductivity: SDS (0.1 mol/L) in water
Experimental: The hand-held conductivity/TDS meter CN 6/TDS 6 of Oakton instruments was used to measure the conductivity and the temperature of the sample.
Sodium dodecyl sulfate (Ionic surfactant): sodium dodecyl sulfate in deionized water solution (0.1 mol/l) was prepared in a 200 ml glass beaker. The solution was stored in refrigerator at 5° C. for 24 hours. The sodium dodecyl sulfate surfactant has crystallized below the 5° C. atmosphere. The glass beaker was taken out of the refrigerator and placed on a hot plate stirrer. The conductivity meter probe was immersed into the solution. The dual measuring mode of conductivity meter could measure both the conductivity and the temperature. The solution was slightly heated to remain 0.2° C./min increase. The measured conductivity and temperature data were drawn in FIGS. 2A-2B. […]
Krafft temperature and solubility behavior of the ionic surfactant SDS and the non-ionic surfactant modified konjac glucomannan were discussed in FIGS. 2A-2D. […] The conductivity measurement was proven to be able to identify the Krafft temperature. Krafft temperature is the minimum temperature for surfactant to form micelles. There is an abrupt large solubility increase above the Krafft temperature. Surfactant working temperature should be higher than Krafft temperature for surfactant functioning.
First, 200 ml of SDS in deionized water solution of 0.1 mol/L concentration was prepared in a 200 ml glass beaker. The solution was left in refrigerator at 5° C. for 24 hours. This process has brought about the crystallization of the surfactant. The glass beaker is taken out of the refrigerator and placed on a hot plate stirrer (CORNING PC-420). The probe stick of the conductivity meter (TDS meter CON 6/TDS 6) is inserted into the solution. The dual measuring mode of conductivity meter can measure both the conductivity and the temperature. The conductivity of the solution is recorded from 12° C. and measured till 28° C. The solution is slightly heated to attain a steady temperature rise. The conductivity is measured at regular intervals of temperature (0.2° C. raise) and noted down. The whole process took about 2.5 hours. […]

[2] = tested on: black beans, red beans, and pinto beans; settings: in vivo
Text: Edible black beans, red beans, and pinto beans were purchased from local supermarket. 12 black beans, 12 red beans, and 9 pinto beans were randomly chosen and set aside in lab atmosphere for 7 days. […] Beans were separated into three plastic petri dishes, into which four black beans, four red beans and three pinto beans each were placed. Three water environments were simulated, and beans were immersed with reference sea water, 0.25 wt % pristine KGM in sea water, and 0.25 wt % modified konjac glucomannan in sea water for 7 days.

[3] = Herding efficiency of PEG derivatives and commercial surfactants (slick thickness ratio vs herder concentration); settings: 25° C.
Experimental: Herding surfactant is essentially a surface-active agent. To preliminarily investigate the material herding efficiency to oil, suitable polymer surfactants with […] were tested. Polyethylene glycol (PEG) is a water soluble polymer and easy to couple with hydrophobic chain to form surfactant. The experiments were performed at room temperature. The slick thickness ratio is defined as below: […]
Higher slick thickness ratio implied better herding quality. […] The effectiveness of surfactants at herding oil is directly related to the chemical structure of the PEG derivatives. […] The reason of slick thickness ratio curve of FIG. 8C and FIG. 8D remained flat were assumed to be its internal chemical structure large benzene rings and two side longer carbon chains. The benzene rings and longer carbon chains affected the steric hindrance of materials and largely restricted the hydrophobic side reaction with oil slick. They could not perform herding effect and thus curves in FIG. 8C and FIG. 8D remained flat, and the thickness ratio was close to 1.
More comparisons were tested to study herder efficiency with different commercial surfactants at varying temperatures and salinity. […] In FIG. 9B, the PEG-monolaurate retained high herding ability under 25° C. […]

Compound: CCCCCCCCCCCCOS(=O)(=O)[O-].[Na+] [SDS, sodium dodecyl sulfate]
- Krafft temperature (sudden large increase in conductivity) ([1]; 0.1 mol/L in deionized water): 14.6 °C
- Conductivity ([1]; 13 ° C.): 3.07 mS
- Conductivity ([1]; 13.2 ° C.): 3.07 mS
- Conductivity ([1]; 13.4 ° C.): 3.09 mS
- Conductivity ([1]; 13.6 ° C.): 3.1 mS
- Conductivity ([1]; 13.8 ° C.): 3.11 mS
- Conductivity ([1]; 14 ° C.): 3.11 mS
- Conductivity ([1]; 14.2 ° C.): 3.12 mS
- Conductivity ([1]; 14.4 ° C.): 3.14 mS
- Conductivity ([1]; 14.6 ° C.): 3.25 mS
- Conductivity ([1]; 14.8 ° C.): 3.34 mS
- Conductivity ([1]; 15 ° C.): 3.56 mS
- Conductivity ([1]; 15.2 ° C.): 3.82 mS
- Conductivity ([1]; 15.4 ° C.): 4.02 mS
- Conductivity ([1]; 15.6 ° C.): 4.21 mS
- Conductivity ([1]; 15.8 ° C.): 4.3 mS
- Conductivity ([1]; 16 ° C.): 4.35 mS
- Conductivity ([1]; 16.2 ° C.): 4.37 mS
- Conductivity ([1]; 16.4 ° C.): 4.38 mS
- Conductivity ([1]; 16.6 ° C.): 4.34 mS
- Conductivity ([1]; 16.8 ° C.): 4.39 mS
- Conductivity ([1]; 17 ° C.): 4.39 mS
- Conductivity ([1]; 17.2 ° C.): 4.41 mS
- Conductivity ([1]; 17.4 ° C.): 4.43 mS
- Conductivity ([1]; 17.6 ° C.): 4.44 mS
- Conductivity ([1]; 17.8 ° C.): 4.45 mS
- Conductivity ([1]; 18 ° C.): 4.49 mS
- Conductivity ([1]; 18.6 ° C.): 4.5 mS
- Conductivity ([1]; 19 ° C.): 4.51 mS
- Conductivity ([1]; 19.4 ° C.): 4.53 mS
- Conductivity ([1]; 20 ° C.): 4.57 mS
- Conductivity ([1]; 21 ° C.): 4.6 mS
- Conductivity ([1]; 22 ° C.): 4.65 mS
- Conductivity ([1]; 23 ° C.): 4.67 mS
- Conductivity ([1]; 24 ° C.): 4.7 mS
- Conductivity ([1]; 25 ° C.): 4.72 mS
- Conductivity ([1]; 26 ° C.): 4.75 mS
- Conductivity ([1]; 27 ° C.): 4.77 mS
- Conductivity ([1]; 28 ° C.): 4.82 mS

Compound: konjac glucomannan
- growth (sprouting) of beans [2]: did not affect the growth of the beans

Compound: Span-20
- herding ability [3]: good herding ability
